Source: PubChem BioAssay (NCI)
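Each compound was tested at five concentrations against cells in 96-well plates for 48 hours. TGI: total growth inhibition.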

What was measured:
Experiment in all cases: DTP human tumour cell line panel, 48 h
M19-MEL melanoma = test system: M19-MEL melanoma
NCI-H460 lung = test system: NCI-H460 lung
U251 CNS = test system: U251 CNS
DLD-1 colon = test system: DLD-1 colon
SNB-19 CNS = test system: SNB-19 CNS
MALME-3M melanoma = test system: MALME-3M melanoma
MOLT-4 leukemia = test system: MOLT-4 leukemia
RXF 393 renal = test system: RXF 393 renal
HCC-2998 colon = test system: HCC-2998 colon
SNB-78 CNS = test system: SNB-78 CNS
ACHN renal = test system: ACHN renal
HCT-116 colon = test system: HCT-116 colon
SF-268 CNS = test system: SF-268 CNS
OVCAR-4 ovarian = test system: OVCAR-4 ovarian
HT29 colon = test system: HT29 colon
LXFL 529 NSCLC = test system: LXFL 529 NSCLC
SF-539 CNS = test system: SF-539 CNS
SN12C renal = test system: SN12C renal
CCRF-CEM leukemia = test system: CCRF-CEM leukemia
UACC-62 melanoma = test system: UACC-62 melanoma
EKVX NSCLC = test system: EKVX NSCLC
NCI-H522 lung = test system: NCI-H522 lung
RXF-631 renal = test system: RXF-631 renal
K-562 leukemia = test system: K-562 leukemia
UO-31 renal = test system: UO-31 renal
NCI-H23 lung = test system: NCI-H23 lung
SR leukemia = test system: SR leukemia
UACC-257 melanoma = test system: UACC-257 melanoma
OVCAR-5 ovarian = test system: OVCAR-5 ovarian
SK-OV-3 ovarian = test system: SK-OV-3 ovarian
LOX IMVI melanoma = test system: LOX IMVI melanoma
KM12 colon = test system: KM12 colon
XF 498 CNS = test system: XF 498 CNS
A498 renal = test system: A498 renal
OVCAR-3 ovarian = test system: OVCAR-3 ovarian
HL-60(TB) leukemia = test system: HL-60(TB) leukemia
SNB-75 CNS = test system: SNB-75 CNS
M14 melanoma = test system: M14 melanoma
HOP-62 NSCLC = test system: HOP-62 NSCLC
DMS 114 small cell lung = test system: DMS 114 small cell lung
SK-MEL-2 melanoma = test system: SK-MEL-2 melanoma
TK-10 renal = test system: TK-10 renal
SK-MEL-28 melanoma = test system: SK-MEL-28 melanoma
A549 NSCLC = test system: A549 NSCLC
CAKI-1 renal = test system: CAKI-1 renal
COLO 205 colon = test system: COLO 205 colon
DMS 273 small cell lung = test system: DMS 273 small cell lung
786-0 renal = test system: 786-0 renal
OVCAR-8 ovarian = test system: OVCAR-8 ovarian
KM20L2 colon = test system: KM20L2 colon
HCT-15 colon = test system: HCT-15 colon
NCI-H226 lung = test system: NCI-H226 lung
HOP-18 NSCLC = test system: HOP-18 NSCLC
IGROV1 ovarian = test system: IGROV1 ovarian
RPMI-8226 leukemia = test system: RPMI-8226 leukemia
SK-MEL-5 melanoma = test system: SK-MEL-5 melanoma
SW-620 colon = test system: SW-620 colon
SF-295 CNS = test system: SF-295 CNS
HOP-92 NSCLC = test system: HOP-92 NSCLC

Measured: TGI

O=S(O)c1cc(Cl)c(O)c(Cl)c1
> 100 µM: M19-MEL melanoma | NCI-H460 lung | U251 CNS | DLD-1 colon | SNB-19 CNS | MALME-3M melanoma | MOLT-4 leukemia | RXF 393 renal | HCC-2998 colon | SNB-78 CNS | ACHN renal | HCT-116 colon | SF-268 CNS | OVCAR-4 ovarian | HT29 colon | LXFL 529 NSCLC | SF-539 CNS | SN12C renal | CCRF-CEM leukemia | UACC-62 melanoma | EKVX NSCLC | NCI-H522 lung | RXF-631 renal | K-562 leukemia | UO-31 renal | NCI-H23 lung | SR leukemia | UACC-257 melanoma | OVCAR-5 ovarian | SK-OV-3 ovarian | LOX IMVI melanoma | KM12 colon | XF 498 CNS | A498 renal | OVCAR-3 ovarian | HL-60(TB) leukemia | SNB-75 CNS | M14 melanoma | HOP-62 NSCLC | DMS 114 small cell lung | SK-MEL-2 melanoma | TK-10 renal | SK-MEL-28 melanoma

CC(=O)OCC1OC(n2c(=S)n(-c3ccccc3)c(=O)c3cc(Br)ccc32)C(OC(C)=O)C1OC(C)=O (stereo unspecified)
> 100 µM: A549 NSCLC | M19-MEL melanoma | NCI-H460 lung | U251 CNS | DLD-1 colon | CAKI-1 renal | COLO 205 colon | DMS 273 small cell lung | SNB-19 CNS | 786-0 renal | MALME-3M melanoma | MOLT-4 leukemia | OVCAR-8 ovarian | RXF 393 renal | KM20L2 colon | HCC-2998 colon | SNB-78 CNS | ACHN renal | HCT-116 colon | SF-268 CNS | OVCAR-4 ovarian | HT29 colon | HCT-15 colon | LXFL 529 NSCLC | SF-539 CNS | NCI-H226 lung | HOP-18 NSCLC | SN12C renal | UACC-62 melanoma | IGROV1 ovarian | EKVX NSCLC | NCI-H522 lung | RPMI-8226 leukemia | SK-MEL-5 melanoma | UO-31 renal | NCI-H23 lung | UACC-257 melanoma | OVCAR-5 ovarian | SK-OV-3 ovarian | LOX IMVI melanoma | KM12 colon | XF 498 CNS | A498 renal | SW-620 colon | SF-295 CNS | OVCAR-3 ovarian | SNB-75 CNS | M14 melanoma | HOP-62 NSCLC | DMS 114 small cell lung | SK-MEL-2 melanoma | HOP-92 NSCLC | SK-MEL-28 melanoma
